# Experimental data published in patent US7470664.
# Where two headings read alike, the source gives them in different places.
# Conditions: 19-membered ring
Compound,"ring closure, isolated yield (from C=CCCCOC(=O)N[C@@H](CCCC)C(=O)N1C[C@H](OC(=O)N2Cc3cccc(C=C)c3C2)C[C@H]1C(=O)OC, rcm bond, Zhan catalyst I (RC-301), DCE, 5.5 mM, 100.0 °C) [%]","ring closure, isolated yield (from COC(=O)[C@@H]1C[C@@H](OC(=O)N2Cc3cccc(C#CCCCOC(=O)N[C@H](C(=O)O)C(C)(C)C)c3C2)C[NH2+]1, amide bond, HATU/Et3N/DMAP, DCM, 42.0 mM, 25.0 °C, 2 steps) [%]"
CCCC[C@@H]1NC(=O)OCCCC=Cc2cccc3c2CN(C3)C(=O)O[C@@H]2C[C@@H](C(=O)OC)N(C2)C1=O,79,–
COC(=O)[C@@H]1C[C@@H]2CN1C(=O)[C@H](C(C)(C)C)NC(=O)OCCCC#Cc1cccc3c1CN(C3)C(=O)O2,–,43
